Assay results published in patent US20110237495A1, “FUNCTIONAL METABOLOMICS COUPLED MICROFLUIDIC CHEMOTAXIS DEVICE AND IDENTIFICATION OF NOVEL CELL MEDIATORS” (The Brigham and Women's Hospital, Inc. Corporate Sponsored …, priority 2008, published 2011).

Legend:
[1] = Zymosan A-induced murine peritonitis: appearance of i.v. labeled omega-3 fatty acids in peritoneal exudates; assay type: in vivo, male FVB mice; conditions: for time of maximum level in peritoneal exudate: 1 μg/mouse i.v. just before i.p. zymosan A, GC-MS; for exudate level at 48 h compared with 24 h: 1 μg/mouse i.v., p<0.05
Experimental: Male FVB mice were anesthetized with isoflurane (Hospira Inc, Lake Forest, Ill.). Both 1 μg d5-DHA (4Z,7Z,10Z,13Z,16Z,19Z-docosahexaenoic-21,21,22,22,22-d5 acid: Cayman Chemical, Ann Arbor, Mich.) and 1 μg d5-EPA (5Z,8Z,11Z,14Z,17Z-eicosapentaenoic-19,19′,20,20,20-d5 acid: Cayman Chemical, Ann Arbor, Mich.) in 100 μl of 2% ethanol (v/v) in saline or vehicle alone were administered by bolus tail vein injection. Approximately five minutes later, peritonitis was initiated with intraperitoneal administration of 1 mg of zymosan A (Sigma Aldrich, St. Louis, Mo.). At indicated time intervals, mice were euthanized with an overdose of isoflurane, and peritoneal exudates were collected by lavage with 5 ml of DPBS without either Ca^2+ or Mg^2+. Exudate cells and supernatants were separated by centrifugation (10 min, 1000 rpm, 4° C.), aliquots of supernatants were collected, and 4 volumes of cold acetone were added to precipitate proteins. Serum albumin and total protein levels were determined^32.
Briefly, FVB mice (6-8 wk) received d5-EPA and d5-DHA i.v. (1 μg/mouse of each) (FIG. 4D, top panel) just before i.p. challenge with zymosan A (1 mg/ml/mouse) (FIG. 4D, middle panel). Peritoneal exudates were collected at 0, 2, 4, 12, 24 and 48 h and taken to solid phase extraction. Eluate fractions were treated with diazomethane and taken to GC-MS. Results represent the mean±SEM from n=3, separate mice. Mass spectra of d5-EPA methyl ester and d5-DHA methyl ester. d5-EPA and d5-DHA were derivatized into methyl esters and submitted to GC-MS for analysis shown in FIGS. 4A-C.
For tracer experiments, mice were fasted overnight (˜18 h) before 500 nCi of [1-^14C]-DHA (docosahexaenoic acid 4,7,10,13,16,19-[1-^14C], American Radiolabeled Chemicals Inc, St. Louis, Mo.) was injected via the tail vein. At indicated time intervals, exudates were collected (vide supra) and the radioactivity was determined using a scintillation counter (Multi-purpose scintillation counter LS6500, Beckman Coulter, Fullerton, Calif.).
Upon collection of peritoneal exudates, 2 volumes of cold methanol and internal standard (500 ng/sample, trans-parinaric acid, Molecular Probe, Eugene, Oreg.) were added to exudates, which were stored at −20° C. for 1 hr. After centrifugation, samples were diluted and applied to C18 cartridge columns (Extract-Clean EV SPE, Alltech, Deerfield, Ill.). Lipids were extracted using hexane and methyl formate and each fraction was collected and its unesterified fatty acids converted to corresponding methyl ester using diazomethane treatment^34. The esters were suspended in hexane, and then injected in GC-MS. Electron-impact GC-MS was carried out using an HP 6890 GC system with HP5973 Mass Selective Detector (Hewlett-Packard) equipped with an HP-5MS capillary column (0.25 mm ID×30 m, 0.25 μm, Agilent Technologies Inc., Wilmington, Del.) operating at a mass range from m/z 70 to 800. The ionization voltage was 70 eV and the ion source temperature was 230° C. Chromatography was carried out using a column temperature maintained at 150° C. for 2 min and then programmed to increase 10° C./min up to 230° C., 5° C./min up to 280° C., and then maintained at 280° C. for 10 min. EPA and DHA were separated and the area beneath each chromatographic peak of their deuterium labels was obtained by integration using a Chemstation integrator Version D.02.00.275 (Agilent Technologies Inc). […] The inventors selected the ω-3 ion ((CH)3CH2(CH)2CD2CD3=113) for both d5-EPA (FIG. 4A) and d5-DHA (FIG. 4B) methyl ester and M^+(290) for methyl parinate (FIG. 4C). Identification was conducted by examining and retention times as in FIGS. 4A-C (d5-EPA-methyl ester: 11.7 min FIG. 4A, inset, methyl-parinarate; 13.1 min (FIG. 4C, and d5-DHA; 13.9 min, FIG. 4B, inset). Calibration curves were obtained for each: d5-EPA; y=0.0016x+0.0313 (r^2=0.9954, 50-500 ng/ml), d5-DHA; y=0.0015x-0.0524 (r^2=0.9809, 50-500 ng/ml). […]

[2] = test system: leukocyte infiltration in lung tissues; test: Hind-limb ischemia-reperfusion-induced second-organ (lung) injury, lung MPO by ELISA; assay type: in vivo, mice; conditions: 1 μg i.v. in vehicle; ischemia-reperfusion
Experimental: To identify the effects of the resolvins and protectins on inflammation resolution, ischemia-reperfusion induced second-organ injury experiments were designed and are illustrated in FIGS. 7A-D. Mice were anesthetized by intraperitoneal injection of pentobarbital (80 mg kg^−1, Nembutal sodium solution NDC 0074-3778-04). Hind-limb ischemia was initiated using tourniquets consisting of a rubber band placed on each hind limb as in ref.^35. Mice were subjected to hind limb ischemia for 1 h, after which the tourniquets were removed to initiate reflow-reperfusion. Resolvins, related compounds and analogs were each administered at 1 μg/mouse (i.e., DHA, RvD1, RvD1 methyl ester, 17-(R/S)-methyl-RvD1 methyl ester, RvE1, or 19-p-fluorophenoxy-RvE1 methyl ester) in vehicle (5 μl ethanol in 120 μl sterile saline) or vehicle alone. They were administered intravenously to the tail vein ˜5 min before the start of the reperfusion period. At the end of this reperfusion period (2 h), the mice were euthanized with an overdose of anesthetic and the lungs were quickly harvested, frozen in liquid nitrogen, and stored at −80° C. The right lungs were homogenized from individual mice and centrifuged, and the tissue levels of myeloperoxidase (MPO) (a leukocyte marker enzyme) in the resulting supernatants, for each experimental protocol, were determined using a mouse MPO enzyme-linked immunosorbent assay (Hycult biotechnology, Cell Sciences, Uden, The Netherlands).
Briefly, as illustrated in the time-course shown in FIG. 7A, hind-limb ischemia was induced in mice by creating tourniquets using a rubber band on each hind limb. After 1 h, the tourniquets were removed and reperfusion ensued. Test compounds (1 μg of DHA, RvD1, RvE1) in vehicle were administered intravenously 5 min before the start of the reperfusion period. At the end of the reperfusion period (2 h), lungs were collected and MPO concentrations were determined by ELISA. FIGS. 7B and C are representative images from histological analysis. FIG. 9B is a photomicrograph showing a hematoxylin/eosin-stained lung from ischemia/reperfusion second organ injury (control). […] Mean±SEM (n=3-5, control; n=12).
Ischemia/reperfusion is a well-appreciated pathophysiologic mechanism of organ injury and local tissue damage that can be initiated by excessively activated PMN. This system in the mouse, models the second organ injury observed in humans following tourniquet release of vessels in surgery involving, for example, extremities^41, 42. Remote or second organ injury can also occur when blood vessels are occluded, or during certain surgical procedures that create local ischemia and remote organ injury that has many features of rapid, acute inflammation and tissue damage^35. On release of the tourniquet occlusion, reflow is initiated and activated PMN rapidly infiltrate secondary organs, causing damage^35. Here, the inventors evaluated RvD1 in a remote organ injury system, i.e., hind-limb ischemia/reperfusion, to assess whether RvD1's ability to inhibit PMN migration, in vitro, in microchambers (FIGS. 8A-C, 9-11) can be predictive of their effect to reduce PMN mediated tissue and organ damage in vivo. […] The extent of lung tissue injury is associated with PMN activation and organ infiltration^35.

time of maximum level in peritoneal exudate [1] | exudate level at 48 h compared with 24 h [1] | Structure (SMILES) | percent reduction of MPO found in lungs (FIG. 11), mean±SEM [2] | also measured
2 h | significantly greater than at 24 h | [2H]C([2H])([2H])C([2H])([2H])/C=C\C/C=C\C/C=C\C/C=C\C/C=C\C/C=C\CCC(=O)O [d5-DHA, 4Z,7Z,10Z,13Z,16Z,19Z-docosahexaenoic-21,21,22,22,22-d5 acid] | – | –
4 h | significantly greater than at 24 h | [2H]C([2H])([2H])C([2H])([2H])/C=C\C/C=C\C/C=C\C/C=C\C/C=C\CCCC(=O)O [d5-EPA, 5Z,8Z,11Z,14Z,17Z-eicosapentaenoic-19,19′,20,20,20-d5 acid] | – | –

The remaining lines, values behind:

Structure (SMILES) | time of maximum level in peritoneal exudate [1] | exudate level at 48 h compared with 24 h [1] | percent reduction of MPO found in lungs (FIG. 11), mean±SEM [2] | also measured
CC/C=C\C[C@H](O)/C=C/C=C\C=C\C=C\[C@@H](O)[C@@H](O)C/C=C\CCC(=O)OC [RvD1-Me, RvD1 carboxymethyl ester] | – | – | 22.9 ±6.8% | –
CC/C=C\CC(C)(O)/C=C/C=C\C=C\C=C\[C@@H](O)[C@@H](O)C/C=C\CCC(=O)OC (mixture of isomers) [17-(R/S)-methyl-RvD1-Me, 17-(R/S)-methyl-RvD1 carboxymethyl ester] | – | – | 29.3 ±6.4% | –
CC/C=C\C/C=C\C/C=C\C/C=C\C/C=C\C/C=C\CCC(=O)O [^14C-DHA, docosahexaenoic acid 4,7,10,13,16,19-[1-^14C]] | – | – | – | time at which 14C label reached maximal levels in exudate ([1]; 500 nCi i.v., mice fasted overnight, scintillation counting): 1 h; effect on leukocyte trafficking (FACS analysis of exudates) ([1]; tracer levels i.v.): did not reduce leukocyte trafficking
